Target: Cationic amino acid transporter 3 (Homo sapiens) (UniProt Q8WY07)
Test: CAT-3 electrogenic transport substrate activity – HEK293 JumpIn overexpressing cells, membrane potential dye, dose response (AID 1745863)
Settings: HEK293 JumpIn SLC7A3 OE, membrane potential dye FLIPR

Cationic amino acid transporter 3 (Homo sapiens), sequence (Q8WY07 whole entry, looked up): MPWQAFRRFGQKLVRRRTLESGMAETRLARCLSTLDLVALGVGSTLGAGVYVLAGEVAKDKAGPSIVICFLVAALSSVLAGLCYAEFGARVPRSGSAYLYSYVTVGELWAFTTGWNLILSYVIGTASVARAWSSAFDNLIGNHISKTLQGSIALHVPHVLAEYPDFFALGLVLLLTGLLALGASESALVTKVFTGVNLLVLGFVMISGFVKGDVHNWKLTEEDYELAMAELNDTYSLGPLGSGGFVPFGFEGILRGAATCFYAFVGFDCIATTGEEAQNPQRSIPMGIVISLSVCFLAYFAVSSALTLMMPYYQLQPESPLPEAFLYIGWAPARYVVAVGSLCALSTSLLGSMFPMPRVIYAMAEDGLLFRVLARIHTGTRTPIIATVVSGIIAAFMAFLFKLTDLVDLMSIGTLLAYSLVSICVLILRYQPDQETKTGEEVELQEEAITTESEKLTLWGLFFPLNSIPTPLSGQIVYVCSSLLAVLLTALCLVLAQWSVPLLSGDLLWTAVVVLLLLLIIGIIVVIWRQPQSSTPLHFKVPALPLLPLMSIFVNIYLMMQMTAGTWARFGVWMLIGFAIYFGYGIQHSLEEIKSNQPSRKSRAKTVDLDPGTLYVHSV

In order of falling EC50:
1. NC(N)=NCCC[C@H](N)C(=O)O  283 µM
2. NCCC[C@H](N)C(=O)O  237 µM
3. NCCCC[C@H](N)C(=O)O  158 µM

Reference: PubChem BioAssay AID1745863
